Measured values as given in patent US20150175599A1, “FAAH Inhibitors” (Ironwood Pharmaceuticals, Inc., priority 2010, published 2015).

Experiments:
[1] = Pharmacokinetic study, plasma level 2 hours after oral dosing in rats; assay type: in vivo
Description: Pharmacokinetic studies were conducted to determine absorption and distribution profiles of the disclosed compounds which were orally administered to rats.
Compounds were formulated in a 1% DMA/99% Vitamin E TPGS vehicle. Prepared compounds were dosed via oral gavage (PO). Following the appropriate pretreatment time of 2 hours, rats were anesthetized with isoflurane gas. Blood was collected into tubes containing EDTA via retro-orbital eye bleed. Whole blood was spun in a micro-centrifuge at approximately 13,000 rpm for 5 minutes at room temperature. Separated plasma was subsequently aliquoted into eppendorf tubes. Samples were stored at −80° C. until prepped for analysis.
Plasma samples were thawed and the required amount of plasma for standards, blanks and dilutions were made. The dilutions were prepared before plating. Preparation of crash solution included cold acetonitrile+0.1% formic acid and 25 ng/mL of a FAAH inhibitor used as internal standard. solvent standards of the FAAH inhibitor being studied were preparation at 10, 30, 100, 300, 1000, 3000, 10000, 30000, 100000, and 300000 ng/mL in DMSO. Then a plasma standard curve was generated from the solvent standards (final concentrations of standards in plasma were: 0.1, 0.3, 1, 3, 10, 30, 100, 300, 1000, 3000 ng/mL). 50 μL of each plasma sample/dilution, standard, or blank was transferred into 96-well plates. To each well, 200 μL of cold crash solution was added. The plate was covered and gently vortexed. The plate was centrifuged at 3500 rpm, 4° C. for 10 min. 200 μL of each supernatant was transferred into new plates. The plates were dried under nitrogen in a TurboVap at 55° C. The sample in each well was re-suspended with 100 μL of 30% acetonitrile, covered and vortexed gently. The well solutions were analyzed by the LC/MS/MS conditions and specifications below.
HPLC column was a Clipeus C8, 2.1×30 mm, 5 μm, with Basic 8 guard column using 20 μL injections. Mobile phase used was mobile phase A: 0.1% Formic Acid in water and mobile phase B: 0.1% Formic Acid in 85:10:5 ACN:IPA:H2O. The flow rate for the run was 0.5 mL/min and the gradient for the 4 minute total run time was: 0.0 minutes

[2] = target: T1, hERG channel (Homo sapiens, UniProt Q12809); test: hERG channel inhibition, automated patch clamp (IonWorks HT, hERG-CHO); assay type: cell-based; details: CHO cells expressing hERG, 600 s incubation; for inhibition at 600 s, 1 µM: 1 μM compound, read-out: hERG Channel Inhibition % (at 1 μM), vehicle-subtracted values; for inhibition at 600 s, 10 µM: 10 μM compound, read-out: hERG Channel Inhibition % (at 10 μM), vehicle-subtracted values
T1 construct: expressed in transfected cells; host or cells: CHO (hERG-CHO), under Geneticin selection
Description: Human ether-a-gogo-related (hERG) ion channel encodes the inward rectifying voltage gated potassium channel in the heart and has a major role during the repolarization of the cardiac action potential. It is well established that blockade of this ion channel can lead to potentially lethal arrhythmias. hERG pre-clinical safety data is often used by regulatory agencies in elucidate the toxicity profile of certain compositions. The disclosed compounds of Table 1 were tested for their ability to inhibit hERG ion channels.
Media components include F12 Nutrient Mixture (Ham) with GlutaMAX™ (Invitrogen, Cat#31765), Fetal Bovine Serum, Certified (Invitrogen, Cat#16000-044—not heat activated), and Geneticin® Selective Antibiotic (Invitrogen, Cat#10131-027).
One vial of frozen cells, at 1.62×10^6 cells are thawed into a T150 flask (BD Falcon 355001) with 40 mL of pre-warmed complete media. Cells are cultured at 37° C., 5% CO2 for four hours prior to gently changing media. 99% of cells appear attached at this time point.
The flask is media changed at 24 hours post-thaw, the cells are imaged, media changed, and returned to the incubator. At this point, the cells appear healthy and about 25% confluent in the flask. Cells are typically passed 24-48 hours after thaw according to the following intervals and densities below. Cells are incubated at 30° C. for 48 hours prior to assay.
Using an automated patch clamp apparatus (IonWorks^HT), a three pulse protocol was applied by stepping from a holding potential of −80 mV to […] for 2 s, to activate hERG channels. The membrane voltage was then stepped back to −50 mV for 2 s to evoke a tail current prior to returning to the holding potential for 1 s. This sequence was repeated a further two times. This voltage protocol was applied prior to drug (Pre compound) and after 600 s in the presence of drug (Post compound).
The amplitude of the hERG tail current was calculated by measuring the difference between the maximum current on stepping to −50 mV of the third pulse (i.e. peak of the outward hERG tail current) and the current measured immediately prior to activation of any hERG current. This parameter was assessed before (pre tail current amplitude) and after 600 s incubation (post tail current amplitude) in drug. In order to assess the amount of block produced by test compounds, the data was first filtered using the IonWorks™ software to exclude any cells where the seal resistance was less than 50 MOhm. The remaining data was then exported to an excel compatible data file and only currents with tail currents greater than 250 pA were analyzed. The post/pre tail current amplitude ratio for the third pulse was calculated for each drug and control, and presented as percent inhibition.

T1 sequence (Q12809 whole entry): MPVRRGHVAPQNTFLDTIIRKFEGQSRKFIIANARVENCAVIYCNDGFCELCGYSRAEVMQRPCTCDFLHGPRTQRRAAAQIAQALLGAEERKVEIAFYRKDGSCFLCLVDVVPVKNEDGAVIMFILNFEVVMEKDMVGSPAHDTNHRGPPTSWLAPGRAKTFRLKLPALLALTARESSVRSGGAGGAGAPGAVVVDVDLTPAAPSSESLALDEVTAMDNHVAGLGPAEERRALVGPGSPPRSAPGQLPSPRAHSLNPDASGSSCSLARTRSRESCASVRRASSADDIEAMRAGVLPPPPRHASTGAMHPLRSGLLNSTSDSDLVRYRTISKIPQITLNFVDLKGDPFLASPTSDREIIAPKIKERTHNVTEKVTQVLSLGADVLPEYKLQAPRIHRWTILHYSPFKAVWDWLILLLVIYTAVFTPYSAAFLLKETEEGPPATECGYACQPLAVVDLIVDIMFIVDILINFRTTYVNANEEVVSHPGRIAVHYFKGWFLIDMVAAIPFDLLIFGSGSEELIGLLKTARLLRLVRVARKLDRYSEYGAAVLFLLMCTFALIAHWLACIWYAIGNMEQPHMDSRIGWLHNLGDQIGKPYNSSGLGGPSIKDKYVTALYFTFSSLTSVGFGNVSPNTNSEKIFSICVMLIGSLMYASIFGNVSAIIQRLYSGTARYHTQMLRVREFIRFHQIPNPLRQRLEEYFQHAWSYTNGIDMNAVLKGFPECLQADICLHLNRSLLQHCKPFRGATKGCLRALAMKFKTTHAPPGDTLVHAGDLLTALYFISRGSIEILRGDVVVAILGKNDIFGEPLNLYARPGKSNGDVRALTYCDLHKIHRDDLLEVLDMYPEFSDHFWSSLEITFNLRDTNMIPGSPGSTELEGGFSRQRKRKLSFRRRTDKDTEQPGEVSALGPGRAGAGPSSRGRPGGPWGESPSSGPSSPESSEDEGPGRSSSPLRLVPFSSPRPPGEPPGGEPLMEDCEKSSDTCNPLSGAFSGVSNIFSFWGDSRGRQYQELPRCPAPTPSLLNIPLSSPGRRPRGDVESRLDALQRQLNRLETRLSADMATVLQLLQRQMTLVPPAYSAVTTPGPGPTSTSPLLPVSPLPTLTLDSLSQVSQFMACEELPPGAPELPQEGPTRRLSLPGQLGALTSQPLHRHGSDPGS

**Q.** With `COc1cc(NC(=O)C(=O)c2c(C)n(Cc3ncc(Cl)cc3Cl)c3ccc(C)cc23)ccn1` [Compound 30, 2-(1-((3,5-dichloropyridin-2-yl)methyl)-2,5-dimethyl-1H-indol-3-yl)-N-(2-methoxypyridin-4-yl)-2-oxoacetamide] as the compound, how does the “2 hr plasma level-ng/mL (rat, 10 mg/kg PO, 2 hr)” value (“2 hr plasma level-ng/mL” for short) [1] read?
**A.** C (C = between 100 nM and 1000 nM)

**Q.** What about the inhibition at 600 s, 1 µM [2] of the same compound?
**A.** < 25%

**Q.** What about the inhibition at 600 s, 10 µM [2] of the same compound?
**A.** 50 to 75%

**Q.** Which “2 hr plasma level-ng/mL” value [1] does the source give for `COc1cc(NC(=O)C(=O)c2c(C)n(Cc3ccc(Cl)cc3)c3ccc(C#N)cc23)ccn1` [Compound 15, 2-(1-(4-chlorobenzyl)-5-cyano-2-methyl-1H-indol-3-yl)-N-(2-methoxypyridin-4-yl)-2-oxoacetamide] here?
**A.** D (D = greater than 1000 nM)

**Q.** And the inhibition at 600 s, 1 µM [2]?
**A.** < 25%

**Q.** What about the inhibition at 600 s, 10 µM [2] of the same compound?
**A.** 50 to 75%

**Q.** For `COc1cc(NC(=O)C(=O)c2c(C)n(Cc3ccc(Cl)cc3)c3ccc(N)cc23)ccn1` [Compound 20, 2-(5-amino-1-(4-chlorobenzyl)-2-methyl-1H-indol-3-yl)-N-(2-methoxypyridin-4-yl)-2-oxoacetamide], which “2 hr plasma level-ng/mL” value [1] is on record?
**A.** C (C = between 100 nM and 1000 nM)

**Q.** What about the inhibition at 600 s, 1 µM [2] of the same compound?
**A.** < 25%

**Q.** What about the inhibition at 600 s, 10 µM [2] of the same compound?
**A.** < 25%

**Q.** For `COc1cc(NC(=O)C(=O)c2c(C)n(Cc3ncc(Cl)cc3Cl)c3cc(Cl)c(OC)cc23)ccn1` [Compound 70, 2-(6-chloro-1-((3,5-dichloropyridin-2-yl)methyl)-5-methoxy-2-methyl-1H-indol-3-yl)-N-(2-methoxypyridin-4-yl)-2-oxoacetamide], which “2 hr plasma level-ng/mL” value [1] is on record?
**A.** C (C = between 100 nM and 1000 nM)

**Q.** What about the inhibition at 600 s, 1 µM [2] of the same compound?
**A.** < 25%

**Q.** And the inhibition at 600 s, 10 µM [2]?
**A.** < 25%

**Q.** For `COc1cc(NC(=O)C(=O)c2c(C)n(Cc3ccc(Cl)cn3)c3cc(Cl)c(OC)cc23)ccn1` [Compound 60, 2-(6-chloro-1-((5-chloropyridin-2-yl)methyl)-5-methoxy-2-methyl-1H-indol-3-yl)-N-(2-methoxypyridin-4-yl)-2-oxoacetamide], which “2 hr plasma level-ng/mL” value [1] is on record?
**A.** D (D = greater than 1000 nM)

**Q.** What about the inhibition at 600 s, 1 µM [2] of the same compound?
**A.** < 25%

**Q.** And the inhibition at 600 s, 10 µM [2]?
**A.** 25 to 50%

**Q.** For `COc1cc(NC(=O)C(=O)c2c(C)n(Cc3ccc(Cl)cc3)c3ccc(OC(F)(F)F)cc23)ccn1` [Compound 23, 2-(1-(4-chlorobenzyl)-2-methyl-5-(trifluoromethoxy)-1H-indol-3-yl)-N-(2-methoxypyridin-4-yl)-2-oxoacetamide], which “2 hr plasma level-ng/mL” value [1] is on record?
**A.** C (C = between 100 nM and 1000 nM)

**Q.** What about the inhibition at 600 s, 1 µM [2] of the same compound?
**A.** < 25%

**Q.** And the inhibition at 600 s, 10 µM [2]?
**A.** 50 to 75%

**Q.** What does the source list for `COc1cc(NC(=O)C(=O)c2c(C)n(Cc3ccc(Cl)cn3)c3ccccc23)ccn1` [Compound 68, 2-(1-((5-chloropyridin-2-yl)methyl)-2-methyl-1H-indol-3-yl)-N-(2-methoxypyridin-4-yl)-2-oxoacetamide]?
**A.** 2 hr plasma level-ng/mL (rat, 10 mg/kg PO, 2 hr) [1]: D (D = greater than 1000 nM); inhibition at 600 s, 1 µM [2]: < 25%; inhibition at 600 s, 10 µM [2]: < 25%

**Q.** With `COc1ccc(Cn2c(C)c(C(=O)C(=O)Nc3ccnc(OC)c3)c3cc(C)ccc32)nc1` [Compound 69, 2-(1-((5-methoxypyridin-2-yl)methyl)-2,5-dimethyl-1H-indol-3-yl)-N-(2-methoxypyridin-4-yl)-2-oxoacetamide] as the compound, how does the “2 hr plasma level-ng/mL” value [1] read?
**A.** C (C = between 100 nM and 1000 nM)

**Q.** What about the inhibition at 600 s, 1 µM [2] of the same compound?
**A.** < 25%

**Q.** What about the inhibition at 600 s, 10 µM [2] of the same compound?
**A.** < 25%

**Q.** For `COc1ccc(Cn2c(C)c(C(=O)C(=O)Nc3ccnc(OC)c3)c3cc(OC)ccc32)nc1` [Compound 43, 2-(5-methoxy-1-((5-methoxypyridin-2-yl)methyl)-2-methyl-1H-indol-3-yl)-N-(2-methoxypyridin-4-yl)-2-oxoacetamide], which “2 hr plasma level-ng/mL” value [1] is on record?
**A.** D (D = greater than 1000 nM)

**Q.** And the inhibition at 600 s, 1 µM [2]?
**A.** < 25%

**Q.** And the inhibition at 600 s, 10 µM [2]?
**A.** < 25%

**Q.** For `COc1cc(NC(=O)C(=O)c2c(C)n(Cc3ncc(Cl)cc3Cl)c3cc(F)c(OC)cc23)ccn1` [Compound 13, 2-(1-((3,5-dichloropyridin-2-yl)methyl)-6-fluoro-5-methoxy-2-methyl-1H-indol-3-yl)-N-(2-methoxypyridin-4-yl)-2-oxoacetamide], which “2 hr plasma level-ng/mL” value [1] is on record?
**A.** C (C = between 100 nM and 1000 nM)

**Q.** What about the inhibition at 600 s, 1 µM [2] of the same compound?
**A.** < 25%

**Q.** And the inhibition at 600 s, 10 µM [2]?
**A.** < 25%

**Q.** For `COc1cc(NC(=O)C(=O)c2c(C)n(Cc3ccc(Cl)cc3)c3ccc(C(F)(F)F)cc23)ccn1` [Compound 21, 2-(1-(4-chlorobenzyl)-2-methyl-5-(trifluoromethyl)-1H-indol-3-yl)-N-(2-methoxypyridin-4-yl)-2-oxoacetamide], which “2 hr plasma level-ng/mL” value [1] is on record?
**A.** C (C = between 100 nM and 1000 nM)

**Q.** What about the inhibition at 600 s, 1 µM [2] of the same compound?
**A.** < 25%

**Q.** And the inhibition at 600 s, 10 µM [2]?
**A.** 25 to 50%

**Q.** Which “2 hr plasma level-ng/mL” value [1] does the source give for `COc1cc(NC(=O)C(=O)c2c(C)n(Cc3ccc(Cl)cc3)c3cc(Cl)c(OC)cc23)ccn1` [Compound 55, 2-(6-chloro-1-(4-chlorobenzyl)-5-methoxy-2-methyl-1H-indol-3-yl)-N-(2-methoxypyridin-4-yl)-2-oxoacetamide] here?
**A.** C (C = between 100 nM and 1000 nM)

**Q.** What about the inhibition at 600 s, 1 µM [2] of the same compound?
**A.** < 25%

**Q.** And the inhibition at 600 s, 10 µM [2]?
**A.** < 25%

**Q.** For `COc1cc(NC(=O)C(=O)c2c(C)n(Cc3ccc(Cl)cc3)c3ccc(OC)nc23)ccn1` [Compound 36, 2-(1-(4-chlorobenzyl)-5-methoxy-2-methyl-1H-pyrrolo[3,2-b]pyridin-3-yl)-N-(2-methoxypyridin-4-yl)-2-oxoacetamide], which “2 hr plasma level-ng/mL” value [1] is on record?
**A.** C (C = between 100 nM and 1000 nM)

**Q.** What about the inhibition at 600 s, 1 µM [2] of the same compound?
**A.** < 25%

**Q.** And the inhibition at 600 s, 10 µM [2]?
**A.** < 25%

**Q.** With `COc1cc(NC(=O)C(=O)c2c(C)n(Cc3ccc(Cl)cc3)c3ccncc23)ccn1` [Compound 37, 2-(1-(4-chlorobenzyl)-2-methyl-1H-pyrrolo[3,2-c]pyridin-3-yl)-N-(2-methoxypyridin-4-yl)-2-oxoacetamide] as the compound, how does the “2 hr plasma level-ng/mL” value [1] read?
**A.** C (C = between 100 nM and 1000 nM)

**Q.** And the inhibition at 600 s, 1 µM [2]?
**A.** 25 to 50%

**Q.** What about the inhibition at 600 s, 10 µM [2] of the same compound?
**A.** 50 to 75%

**Q.** Which results are given for `COc1cc(NC(=O)C(=O)c2c(C)n(Cc3ccc(Cl)cc3)c3ccc(C(C)=O)cc23)ccn1` [Compound 5, 2-(5-acetyl-1-(4-chlorobenzyl)-2-methyl-1H-indol-3-yl)-N-(2-methoxypyridin-4-yl)-2-oxoacetamide]?
**A.** 2 hr plasma level-ng/mL (rat, 10 mg/kg PO, 2 hr) [1]: C (C = between 100 nM and 1000 nM); inhibition at 600 s, 1 µM [2]: < 25%; inhibition at 600 s, 10 µM [2]: 25 to 50%

**Q.** With `COc1cc(NC(=O)C(=O)c2c(C)n(Cc3ccc(Cl)cn3)c3ccc(C)cc23)ccn1` [Compound 61, 2-(1-((5-chloropyridin-2-yl)methyl)-2,5-dimethyl-1H-indol-3-yl)-N-(2-methoxypyridin-4-yl)-2-oxoacetamide] as the compound, how does the “2 hr plasma level-ng/mL” value [1] read?
**A.** D (D = greater than 1000 nM)

**Q.** And the inhibition at 600 s, 1 µM [2]?
**A.** 25 to 50%

**Q.** And the inhibition at 600 s, 10 µM [2]?
**A.** 50 to 75%
